For this assay, the target named is T1, KRasG12C (Homo sapiens, UniProt P01116, G12C).
T1 construct: biotin (biotinylated); made in house
In words: KRasG12C functional assay (HTRF/FRET nucleotide exchange and Raf RBD binding). It is filed as biochemical. The note with it: samples incubated for 4 hrs, FRET readout, single experiment or average of two or more. The protocol:
All enzyme and substrate solutions were prepared in assay buffer containing 20 mM HEPES (pH 7.5), 5 mM MgCl2, 150 mM NaCl, and 0.01% Tween 20. […] In a separate mix 20 nM GST-Raf Ras binding domain (GST-Raf RBD, purified in house) and 4 μg/ml anti-GST XL665 antibody (Cisbio) was prepared in assay buffer containing 50 mM Potassium Fluoride and 0.05 mg/ml BSA and equilibrated for 4 hours before adding 0.6 μM Guanosine 5′-[γ-thio]triphosphate (GTPγS, Sigma) and 0.08 μM SOS (purified in house). 5 μl of the GST-RAF RBD mix was then dispensed into each well of the assay plate. […] This is detected simultaneously via the specific binding interaction between active GTPγS KRas^G12C with GST-Raf RBD which brings the europium and XL665 into close proximity enabling an increased FRET signal to be detected on a Pherastar (BMG) plate reader equipped with the HTRF filter module. […] IC50 values were calculated from normalised dose-response response FRET data curve fitted in Genedata screener (Basel, Switzerland).

The mark [1] stands for this setting: GDP loaded biotinylated KRasG12C, read-out: KRasG12C functional assay IC50.
[2] abbreviates: KRasG12C functional assay IC50, GDP loaded biotinylated KRasG12C.

Where two headings read alike, the source gives them in different places.

T1 sequence (P01116 1-188 isoform P01116-2 G12C): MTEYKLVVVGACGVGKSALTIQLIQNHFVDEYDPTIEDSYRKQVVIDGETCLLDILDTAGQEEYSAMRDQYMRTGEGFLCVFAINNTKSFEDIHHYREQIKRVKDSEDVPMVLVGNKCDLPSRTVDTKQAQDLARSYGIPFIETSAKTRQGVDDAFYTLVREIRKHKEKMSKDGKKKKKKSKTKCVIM

Consider `C=CC(=O)N1CCN2C(=O)c3cc(Cl)c(-c4c(O)cccc4F)c(Cl)c3OC[C@H]2C1` (single isomer, unassigned) [Example 21], for which the IC50 under setting [1] was found to be 12900 nM.

Regarding `C=CC(=O)N1CCN2Cc3cc(F)c(-c4c(O)ccc(F)c4F)c(Cl)c3OC[C@H]2C1` (single isomer, unassigned) [Example 39], the IC50 under setting [1] was determined as 123 nM.

Regarding `C=CC(=O)N1CCN2C(=O)c3ccc(-c4c(C)ccc5[nH]ncc45)c(Cl)c3OC[C@@H]2C1` (single isomer, unassigned) [Example 2], the IC50 under setting [2] stood at 4500 nM.

For `C=CC(=O)N1CCN2Cc3c(OCCN(C)C)cc(-c4c(O)cccc4Cl)c(F)c3OC[C@H]2C1` (single isomer, unassigned) [Example 116], under setting [1], the IC50 came to 53 nM.

For `C=CC(=O)N1CCN2Cc3cc(C#N)c(-c4c(C)cccc4O)c(Cl)c3OC[C@H]2C1` (single isomer, unassigned) [Example 41], the IC50 under setting [1] came out at 180 nM.

As for `C=CC(=O)N1CCN2Cc3cc(Cl)c(-c4c(O)cccc4F)c(Cl)c3OC[C@H]2C1` (single isomer, unassigned) [Example 26], the IC50 under setting [1] came out at 1000 nM.

Take `C=CC(=O)N1CCN2Cc3cc(OCc4ccncc4)c(-c4c(O)cccc4Cl)c(F)c3OC[C@H]2C1` (single isomer, unassigned) [Example 104]: the 50% inhibitory concentration (IC50) under setting [1] was 27 nM.

Turning to `C=CC(=O)N1CCN2Cc3cc(F)c(-c4c(C)cccc4O)c(F)c3OC[C@H]2C1` (single isomer, unassigned) [Example 44], under setting [2], the half-inhibitory concentration (IC50) was above 100000 nM.

As for `C=CC(=O)N1CCN2Cc3c(c(Cl)c(-c4c(O)cccc4F)[nH]c3=O)OC[C@H]2C1` [Example 69, (6aR)-4-Chloro-3-(2-fluoro-6-hydroxyphenyl)-8-(prop-2-enoyl)-2,6,6a,7,8,9,10,12-octahydro-1H-pyrazino[2,1-c]pyrido[3,4-f][1,4]oxazepin-1-one], under setting [1], the IC50 was 618 nM.

Consider `C=CC(=O)N1CCN2Cc3c(c(Cl)c(-c4c(O)cccc4F)c4cn(C)nc34)OC[C@H]2C1` (single isomer, unassigned) [Example 74], for which the IC50 under setting [1] stood at 135 nM.

For `C=CC(=O)N1CCN2Cc3cc(COC)c(-c4c(O)cccc4Cl)c(Cl)c3OC[C@H]2C1` [Example 114, 1-[(12aR)-10-Chloro-9-(2-chloro-6-hydroxyphenyl)-8-(methoxymethyl)-3,4,12,12a-tetrahydro-6H-pyrazino[2,1-c][1,4]benzoxazepin-2(1H)-yl]prop-2-en-1-one], the IC50 under setting [1] came out at 83 nM.

The molecule `C=CC(=O)N1CCN2Cc3cc(C#N)c(-c4c(O)cccc4Cl)c(F)c3OC[C@H]2C1` (single isomer, unassigned) [Example 55] yielded an IC50 under setting [2] of 16 nM.

For `C=CC(=O)N1CCN2Cc3c(O)c(Cl)c(-c4c(O)cccc4F)c(Cl)c3OC[C@H]2C1` (single isomer, unassigned) [Example 14], the IC50 under setting [1] was 8190 nM.

`C=CC(=O)N1CCN2Cc3c(O)c(Cl)c(-c4c(O)cccc4F)c(Cl)c3OC[C@H]2C1` (single isomer, unassigned) [Example 13]: the half-inhibitory concentration (IC50) under setting [1] stood at 66 nM.

Molecule `C=CC(=O)N1CCN2C(=O)c3ccc(-c4c(C)ccc5[nH]ncc45)c(Cl)c3OC[C@@H]2C1` (single isomer, unassigned) [Example 1] came in with an IC50 under setting [2] of 73000 nM.

With `C#Cc1cc2c(c(F)c1-c1c(O)cccc1Cl)OC[C@H]1CN(C(=O)C=C)CCN1C2` (single isomer, unassigned) [Example 77], the IC50 under setting [2] turned out to be 937 nM.

For the molecule `C=CC(=O)N1CCN2Cc3cc(OC(F)F)c(-c4c(O)cccc4Cl)c(Cl)c3OC[C@H]2C1` (single isomer, unassigned) [Example 98], the IC50 under setting [1] was found to be 11 nM.

As to `C=CC(=O)N1CCN2Cc3cc(OC)c(-c4c(O)cccc4F)c(Cl)c3OC[C@H]2C1` (single isomer, unassigned) [Example 30], under setting [1], the IC50 is 90500 nM.

For the molecule `C=CC(=O)N1CCN2C(=O)c3ccc(-c4c(C)ccc5[nH]ncc45)c(Cl)c3OC[C@H]2C1` (single isomer, unassigned) [Example 7], the IC50 under setting [2] was 82000 nM.

For the origin of these results see patent publication US12410187B2, “Fused tricyclic compounds useful as anticancer agents” (ASTRAZENECA AB, priority 2019, dated 2025).
